Source: PubChem BioAssay AID1963444 (Molecular Pharmacology Branch, DTP, NCI, 2024)
Several values for one entry are separate records, joined by “and”; a condition that tells them apart may be missing. Equal values may be shown once. One block for each compound: values may come before it.

System: HSSY-II complex spheroid growth, percent test/control
Test: Anticancer human tumor HSSY-II cell line growth inhibition [Asc];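 further: spheroids exposed to drug for 7 days before reading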
Conditions: for viability, T/C: stronger effect = lower value
Method in brief: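 Spheroid model: tumor line + HUVEC + hMSC. Single agents and combinations; top conc. at/near clinical Cmax (10 microM if undetermined), half-log dilutions. DMSO stocks at 800-fold test concentration.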

[1] = curve of first compound, second compound 0.1 µM
[2] = curve of first compound, second compound 0.316 µM
[3] = curve of first compound, second compound 1 µM
[4] = curve of first compound, second compound 3.16 µM
[5] = curve of first compound, second compound 10 µM
[6] = second compound 0.1 µM, first compound 0.00316 µM
[7] = second compound 0.1 µM, first compound 0.01 µM
[8] = second compound 0.1 µM, first compound 0.0316 µM
[9] = second compound 0.1 µM, first compound 0.1 µM
[10] = second compound 0.1 µM, first compound 0.316 µM
[11] = second compound 0.1 µM, first compound 1 µM
[12] = second compound 0.316 µM, first compound 0.00316 µM
[13] = second compound 0.316 µM, first compound 0.01 µM
[14] = second compound 0.316 µM, first compound 0.0316 µM
[15] = second compound 0.316 µM, first compound 0.1 µM
[16] = second compound 0.316 µM, first compound 0.316 µM
[17] = second compound 0.316 µM, first compound 1 µM
[18] = second compound 1 µM, first compound 0.00316 µM
[19] = second compound 1 µM, first compound 0.01 µM
[20] = second compound 1 µM, first compound 0.0316 µM
[21] = second compound 1 µM, first compound 0.1 µM
[22] = second compound 1 µM, first compound 0.316 µM
[23] = second compound 1 µM, first compound 1 µM
[24] = second compound 3.16 µM, first compound 0.00316 µM
[25] = second compound 3.16 µM, first compound 0.01 µM
[26] = second compound 3.16 µM, first compound 0.0316 µM
[27] = second compound 3.16 µM, first compound 0.1 µM
[28] = second compound 3.16 µM, first compound 0.316 µM
[29] = second compound 3.16 µM, first compound 1 µM
[30] = second compound 10 µM, first compound 0.00316 µM
[31] = second compound 10 µM, first compound 0.01 µM
[32] = second compound 10 µM, first compound 0.0316 µM
[33] = second compound 10 µM, first compound 0.1 µM
[34] = second compound 10 µM, first compound 0.316 µM
[35] = second compound 10 µM, first compound 1 µM
[36] = second compound 0.1 µM, first compound 0.00949 µM
[37] = second compound 0.1 µM, first compound 0.03 µM
[38] = second compound 0.1 µM, first compound 0.0949 µM
[39] = second compound 0.1 µM, first compound 0.3 µM
[40] = second compound 0.1 µM, first compound 0.949 µM
[41] = second compound 0.1 µM, first compound 3 µM
[42] = second compound 0.316 µM, first compound 0.00949 µM
[43] = second compound 0.316 µM, first compound 0.03 µM
[44] = second compound 0.316 µM, first compound 0.0949 µM
[45] = second compound 0.316 µM, first compound 0.3 µM
[46] = second compound 0.316 µM, first compound 0.949 µM
[47] = second compound 0.316 µM, first compound 3 µM
[48] = second compound 1 µM, first compound 0.00949 µM
[49] = second compound 1 µM, first compound 0.03 µM
[50] = second compound 1 µM, first compound 0.0949 µM
[51] = second compound 1 µM, first compound 0.3 µM
[52] = second compound 1 µM, first compound 0.949 µM
[53] = second compound 1 µM, first compound 3 µM

IC50 [1]: 259 nM
IC50 [2]: 146 nM
IC50 [3]: 135 nM
IC50 [4]: 112 nM
IC50 [5]: 69.9 nM
SMILES: CCN1CCN(Cc2ccc(Nc3ncc(F)c(-c4cc(F)c5nc(C)n(C(C)C)c5c4)n3)nc2)CC1 + Cc1c(S(C)(=O)=O)c(-c2cc(F)cc(N3CCN(c4ccc(NS(=O)(=O)c5ccc(NC(CCN6CCC(C(=O)OCCCP(=O)(O)O)CC6)CSc6ccccc6)c(S(=O)(=O)C(F)(F)F)c5)cc4)CC3)c2)c(-c2ccc(Cl)cc2)n1C(C)C
viability, T/C [6]: 90.8%
viability, T/C [7]: 105%
viability, T/C [8]: 71.5%
viability, T/C [9]: 68.5%
viability, T/C [10]: 47.5%
viability, T/C [11]: 26.7%
viability, T/C [12]: 92.4%
viability, T/C [13]: 88.2%
viability, T/C [14]: 75.6%
viability, T/C [15]: 52.8%
viability, T/C [16]: 40%
viability, T/C [17]: 20.7%
viability, T/C [18]: 94.7%
viability, T/C [19]: 83.1%
viability, T/C [20]: 70%
viability, T/C [21]: 57.6%
viability, T/C [22]: 34.8%
viability, T/C [23]: 24.9%
viability, T/C [24]: 80.9%
viability, T/C [25]: 91.8%
viability, T/C [26]: 74.2%
viability, T/C [27]: 49%
viability, T/C [28]: 38.2%
viability, T/C [29]: 23.1%
viability, T/C [30]: 83.9%
viability, T/C [31]: 81.3%
viability, T/C [32]: 60.7%
viability, T/C [33]: 41.6%
viability, T/C [34]: 40.3%
viability, T/C [35]: 24.9%

IC50 [1]: > 3000 nM
IC50 [2]: > 3000 nM
IC50 [3]: > 3000 nM
IC50 [4]: > 3000 nM
IC50 [5]: > 3000 nM
SMILES: Cc1nc(N2CCC3(CC2)COC(C)C3N)c(CO)nc1Sc1ccnc(N)c1Cl (stereo not given) + Cc1c(S(C)(=O)=O)c(-c2cc(F)cc(N3CCN(c4ccc(NS(=O)(=O)c5ccc(NC(CCN6CCC(C(=O)OCCCP(=O)(O)O)CC6)CSc6ccccc6)c(S(=O)(=O)C(F)(F)F)c5)cc4)CC3)c2)c(-c2ccc(Cl)cc2)n1C(C)C
viability, T/C [36]: 79.8%
viability, T/C [37]: 83.8%
viability, T/C [38]: 88.9%
viability, T/C [39]: 78.8%
viability, T/C [40]: 84.9%
viability, T/C [41]: 60.2%
viability, T/C [42]: 59.4%
viability, T/C [43]: 71.4%
viability, T/C [44]: 60.7%
viability, T/C [45]: 79.1%
viability, T/C [46]: 65.3%
viability, T/C [47]: 61.7%
viability, T/C [48]: 68.1%
viability, T/C [49]: 66.1%
viability, T/C [50]: 78.5%
viability, T/C [51]: 51.7%
viability, T/C [52]: 67.5%
viability, T/C [53]: 59.2%
viability, T/C (second compound 3.16 µM, first compound 0.00949 µM): 64.1%
viability, T/C (second compound 3.16 µM, first compound 0.03 µM): 53.9%
viability, T/C (second compound 3.16 µM, first compound 0.0949 µM): 65%
viability, T/C (second compound 3.16 µM, first compound 0.3 µM): 58.1%
viability, T/C (second compound 3.16 µM, first compound 0.949 µM): 63.3%
viability, T/C (second compound 3.16 µM, first compound 3 µM): 62.2%
viability, T/C (second compound 10 µM, first compound 0.00949 µM): 50.7%
viability, T/C (second compound 10 µM, first compound 0.03 µM): 64.1%
viability, T/C (second compound 10 µM, first compound 0.0949 µM): 62.7%
viability, T/C (second compound 10 µM, first compound 0.3 µM): 48.3%
viability, T/C (second compound 10 µM, first compound 0.949 µM): 51.3%
viability, T/C (second compound 10 µM, first compound 3 µM): 54.6%

IC50 (curve of first compound, second compound 0.01 µM): 88.2 nM
IC50 (curve of first compound, second compound 0.0316 µM): 99 nM
IC50 [1]: 81.9 nM
IC50 [2]: 77.7 nM
IC50 [3]: 67.7 nM
SMILES: CCN1C(C(=O)NC23CCC(C(=O)O)(CC2)CC3)C(c2cccc(Cl)c2F)C2(C(=O)Nc3cc(Cl)ccc32)C12CCCCC2 (stereo not given) + CNC(C)C(=O)NC1CN(S(=O)(=O)c2cccc(S(=O)(=O)N3CCC4CCC(C(=O)NC(c5ccccc5)c5ccccc5)N4C(=O)C(NC(=O)C(C)NC)C3)c2)CCC2CCC(C(=O)NC(c3ccccc3)c3ccccc3)N2C1=O
viability, T/C (second compound 0.01 µM, first compound 0.00949 µM): 96%
viability, T/C (second compound 0.01 µM, first compound 0.03 µM): 82.6%
viability, T/C (second compound 0.01 µM, first compound 0.0949 µM): 47.9%
viability, T/C (second compound 0.01 µM, first compound 0.3 µM): 14.6%
viability, T/C (second compound 0.01 µM, first compound 0.949 µM): 2.75%
viability, T/C (second compound 0.01 µM, first compound 3 µM): 0.77%
viability, T/C (second compound 0.0316 µM, first compound 0.00949 µM): 84.7%
viability, T/C (second compound 0.0316 µM, first compound 0.03 µM): 65.1%
viability, T/C (second compound 0.0316 µM, first compound 0.0949 µM): 55.9%
viability, T/C (second compound 0.0316 µM, first compound 0.3 µM): 14.8%
viability, T/C (second compound 0.0316 µM, first compound 0.949 µM): 1.52%
viability, T/C (second compound 0.0316 µM, first compound 3 µM): 0.58%
viability, T/C [36]: 90%
viability, T/C [37]: 81.2%
viability, T/C [38]: 44.6%
viability, T/C [39]: 13.4%
viability, T/C [40]: 1.69%
viability, T/C [41]: 0.35%
viability, T/C [42]: 95.7%
viability, T/C [43]: 85.1%
viability, T/C [44]: 41.8%
viability, T/C [45]: 11.2%
viability, T/C [46]: 1%
viability, T/C [47]: 0.23%
viability, T/C [48]: 82.9%
viability, T/C [49]: 74.4%
viability, T/C [50]: 39.8%
viability, T/C [51]: 9.04%
viability, T/C [52]: 1.32%
viability, T/C [53]: 0.3%

IC50 (compound alone, run of 10/24/2022): > 1000 nM
IC50 (compound alone, run of 11/15/2022): > 1000 nM
IC50 (curve of compound): > 1000 nM
SMILES: CNC(C)C(=O)NC1CN(S(=O)(=O)c2cccc(S(=O)(=O)N3CCC4CCC(C(=O)NC(c5ccccc5)c5ccccc5)N4C(=O)C(NC(=O)C(C)NC)C3)c2)CCC2CCC(C(=O)NC(c3ccccc3)c3ccccc3)N2C1=O (stereo not given)
viability, T/C (compound 0.00316 µM): 102% and 96.8% and 85%
viability, T/C (compound 0.0316 µM): 89.1% [middle of 14 runs]

IC50 [1]: 566 nM
IC50 [2]: 575 nM
IC50 [3]: 576 nM
IC50 [4]: 511 nM
IC50 [5]: 563 nM
SMILES: O=C(c1ccc(F)c(F)c1Nc1ccc(I)cc1F)N1CC(O)([C@@H]2CCCCN2)C1 + Cc1c(S(C)(=O)=O)c(-c2cc(F)cc(N3CCN(c4ccc(NS(=O)(=O)c5ccc(NC(CCN6CCC(C(=O)OCCCP(=O)(O)O)CC6)CSc6ccccc6)c(S(=O)(=O)C(F)(F)F)c5)cc4)CC3)c2)c(-c2ccc(Cl)cc2)n1C(C)C
viability, T/C [6]: 97.4%
viability, T/C [7]: 111%
viability, T/C [8]: 106%
viability, T/C [9]: 112%
viability, T/C [10]: 77.6%
viability, T/C [11]: 22.9%
viability, T/C [12]: 110%
viability, T/C [13]: 107%
viability, T/C [14]: 99.5%
viability, T/C [15]: 117%
viability, T/C [16]: 79.3%
viability, T/C [17]: 22.9%
viability, T/C [18]: 115%
viability, T/C [19]: 110%
viability, T/C [20]: 114%
viability, T/C [21]: 110%
viability, T/C [22]: 81.8%
viability, T/C [23]: 20.8%
viability, T/C [24]: 107%
viability, T/C [25]: 101%
viability, T/C [26]: 105%
viability, T/C [27]: 98.7%
viability, T/C [28]: 71.8%
viability, T/C [29]: 19.6%
viability, T/C [30]: 96.2%
viability, T/C [31]: 96.4%
viability, T/C [32]: 104%
viability, T/C [33]: 104%
viability, T/C [34]: 81.7%
viability, T/C [35]: 18.1%
